Numbers after ± are expanded uncertainties.
Experiments:
[1] = excess molar enthalpy (molar enthalpy of mixing); xn = mol fraction of the nth substance listed; details: 298.15 K, 101.3 kPa, Liquid, Flow calorimetry
[2] = Liquid

CCCCBr [1-bromobutane] + CCCCCCCCO
[1]
Details | excess molar enthalpy [kcal/mol]
x2 = 0.025 | 0.087 ± 0.00191
x2 = 0.0571 | 0.144 ± 0.00311
x2 = 0.1224 | 0.201 ± 0.0043
x2 = 0.1949 | 0.233 ± 0.00502
x2 = 0.2361 | 0.244 ± 0.00526
x2 = 0.276 | 0.25 ± 0.00526
x2 = 0.3205 | 0.253 ± 0.0055
x2 = 0.367 | 0.252 ± 0.0055
x2 = 0.4661 | 0.24 ± 0.00526
x2 = 0.5784 | 0.212 ± 0.00454
x2 = 0.7064 | 0.165 ± 0.00359
x2 = 0.8484 | 0.0956 ± 0.00215
x2 = 0.9311 | 0.0488 ± 0.0012

CCCCCCCCO [octan-1-ol]
[2]
Details | vapor or sublimation pressure [kPa]
288.15 K | 0.001
293.15 K | 0.003
298.15 K | 0.007 ± 0.01
303.15 K | 0.011 ± 0.01
308.15 K | 0.019 ± 0.01
313.15 K | 0.031 ± 0.01
318.15 K | 0.051 ± 0.01
323.15 K | 0.08 ± 0.01

CCCCBr [1-bromobutane]
[2]
Details | vapor or sublimation pressure [kPa]
278.15 K | 1.86 ± 0.022
283.15 K | 2.48 ± 0.023
288.15 K | 3.265 ± 0.026
293.15 K | 4.261 ± 0.029
298.15 K | 5.506 ± 0.033
303.15 K | 7.039 ± 0.038
308.15 K | 8.899 ± 0.043
313.15 K | 11.15 ± 0.05
318.15 K | 13.87 ± 0.059
323.15 K | 17.09 ± 0.069

CCCCCCCCCCO [decan-1-ol]
[2], Closed cell (Static) method
Details | vapor or sublimation pressure [kPa]
308.15 K | 0.001
313.15 K | 0.004
318.15 K | 0.007 ± 0.01
323.15 K | 0.011 ± 0.01

Reference: the NIST ThermoML archive (doi:10.1021/je030168a)
